Experimental data published in US20100248372A1, “Composition and Method for Modulating Plant Transformation” (priority 2009, published 2010).
Where two headings read alike, the source gives them in different places.

Assays:
Arabidopsis thaliana = assay: Homologous recombination (GUS reporter, histochemical staining) in plants grown on supplemented medium; type: in vivo; conditions: for increase in homologous recombination vs control MS medium: about 3 weeks; for effect on homologous recombination frequency: FIG. 3; for RR (recombination rate): 3-week-old plants
Source text: Homologous recombination was detected in plants, in particular Arabidopsis thaliana and tobacco plants, that were transformed with scorable reporter markers, for example, beta-glucuronidase (uidA or GUS). Upon homologous recombination, the marker gene is restored. Homologous recombination events were identified using histochemical staining. […] A recombination substrate generally consists of two non-functional overlapping copies of a GUS gene. Damage to one of the regions of homology may be repaired using the second copy as a template. A simple count of the number of recombination events in a population of plants was used to conduct quantitative analyses of beta-glucuronidase (GUS) activity. The homologous recombination frequency (HRF) was determined by relating the number of blue spots counted which are indicative of […] and then relating that number to the total number of plants scored. The recombination rate (RR) was determined by relating the HRF to the total number of haploid genomes present in the plant.
The total DNA of the transgenic lines was isolated from whole plants at preferably the full rosette stage using a Nucleon™ PhytoPure™ plant DNA extraction kit from Amersham Life Science. DNA may also be isolated from plants at a different development stage. The yield of total DNA measured in one of micrograms per plant or micrograms per plant organ was compared with the known mean DNA content, 0.16 pg of an A. thaliana cell, to give an approximate number of genomes present in plants (Swoboda et al., Mol. Gen. Genet., 1993, 237(1-2): 33-40). The total DNA was isolated from one of all leaves, roots, and stems of 4 plants per each experimental group for each transgenic line. The average DNA content from these samples was used to estimate the number of genomes present.
Tissues were prepared from A. thaliana plants that were germinated and grown for a period of 3 weeks on a medium containing 0, 25, 75, and 100 mM of NaCl. The recombination rate (RR) was calculated by scoring the HRF in separate groups of 3-week-old plants and then relating these numbers to the total number of genomes present in the plants. Each of the calculated values represents the mean value for the RR. […] The “Fold Increase” values shown in Table 1 were calculated by relating the data from plants grown on 25, 75 and 100 mM of NaCL to the data from plants grown in the absence of NaCl.
Plants were germinated and grown on MS medium supplemented with one of 25 mM NaCl, 12.5 mM of Na2SO4, 12.5 mM of MgCl2, and 12.5 mM of MgSO4. Control plants were grown on standard MS medium. […] The data shown is the RR as an average of two independent experiments, each having 200 plants per experimental group.
The effects of KCl on plant transformation were measured using transgenic plants germinated from Arabidopsis line #11 obtained from Prof. Hohn, Friedrich Miescher Institute, Basel, Switzerland. Plants were germinated and grown on a solid or modified MS basal medium in presence of varying quantities of KCl. In order to establish KCl as the single source of potassium in all the modified media, KNO3, normally present in MS media was omitted. Additionally, potassium dihydrogenphosphate (KH2PO4) was replaced with ammonium dihydrogenphosphate (NH4▪H2PO4).

Nicotiana tabacum [1] = assay: Calli regeneration under hygromycin selection after Agrobacterium transformation of leaves; type: in vivo; conditions: for Calli regenerated and transplanted: died on soil / Calli regenerated and transplanted: total: 20 leaves transformed
Method: Seeds of tobacco cultivar “Big Havana” were surface-sterilized with a solution containing 1% bleach and 0.05% Tween-80, for about 3 minutes and then rinsed twice with sterile distilled water for about 5 minutes. Surface-sterilized seeds were plated in 100 mm Petri dishes on sterile Whatman® filter paper submersed in 4 ml of liquid MS medium containing varying amounts of KCl and the plants were transferred to a growth chamber for germination. Once germinated, the plants were removed from the growth chamber and grown for a period of one week under conditions of 16-hours light, 22° C. and 8-hours dark, 18° C. Three to five one-week-old plants were then removed from the 4-ml liquid medium and were transferred to single sterile glass 250-ml flasks containing 15 ml of sterile liquid MS media supplemented with varying amounts of KCl. Flasks were then installed on shakers at 50-75 rpm. Plants were continuously grown under conditions of 16-hours light, 22° C. and 8-hours dark, 18° C. The growth medium in each flask was replaced weekly with 25 ml of fresh medium. Following a 3-week period, plants were removed from the flasks and 2 to 3 pairs of fully developed fresh leaves about 2-4 cm long were harvested (cut from the plant) for transformation with Agrobacteria.
Experimental groups of tobacco plants were germinated and grown in a liquid medium culture supplemented with varying amounts of KCl. Control plants for the transformation experiments were grown in a standard MS-medium that was not supplemented with KCl.
Four weeks post-germination, the tobacco plants were removed from the liquid medium culture. The leaves from the plants were removed, and several parallel incisions were made along the leaves. The leaves were then vacuum infiltrated with an Agrobacterium suspension culture carrying the plasmid with LUC (gene coding for luciferase) and hygromycin (gene coding for the resistance to hygromycin) genes.
The leaves were vacuum-infiltrated twice for about 5 minutes with the Agrobacterium suspension culture using standard procedures known in the art. Following vacuum-infiltration, the tobacco leaves were dried for about 5 to 10 minutes on sterile Whatman® filter paper to remove substantially all excess Agrobacterium cells. The leaves were then placed on plates containing MS medium, and each of the plates were placed for in a room for a period of 3 day at a temperature of 22° C. and exposed to a daily regime of 16-hours of light and 8-hours of dark.
Leaves from each of the experimental groups grown on the different media compositions having varying amounts of KCL and the controls were washed with sterile water to remove the Agrobacterium suspension. To remove traces of growth medium, leaves were blotted on sterile filter paper and then submersed in a Petri dish laid out with Whatman® filter paper containing re-suspended Agrobacterium cells. Each submersed leaf surface was incised using a sharp surgical blade in parallel along the side veins. The distance between the two parallel incisions was about 5-7 mm. The primary leaf vein and leaf margins were left intact. Once cutting was complete, leaves remained submersed for a period of about 10 minutes. Leaves were then removed from the Petri dish and were blotted dry and placed upside-down on plates of MS medium, and were incubated in a dark room at 22° C. for a period of 3 days. […]
After a period of about 3 to 4 weeks, the numbers of regenerated calli were determined. […]

Nicotiana tabacum [2] = assay: Stable T-DNA integration (LUC expression test of regenerated plantlets); type: in vivo; conditions: for Calli regenerated and transplanted, LUC expression test: LUC negative / Calli regenerated and transplanted, LUC expression test: LUC positive: 20 leaves transformed
Source text: The number of transgenic plants, having incorporated a marker gene, regenerated from tobacco calli in various transformation experiments were counted. All the regenerated plants were screened using a luciferase camera. Spraying the transgenic plants with luciferine, the substrate for luciferase enzyme, allowed the identification of transgenic plants expressing the luciferase.
The newly appeared plantlets regenerated from the calli of Example 4 showing evidence of root formation, were excised from the calli and transferred to soil.
Plantlets were sprayed with luciferine, and the total number of luciferase-positive plantlets was scored. This allowed the calculation of the transformation frequency, as the number of plants expressing LUC gene to the number of transformed leaves, shown in FIG. 7.

[Cl-].[K+] [KCl, potassium chloride]
increase in homologous recombination vs control MS medium (Arabidopsis thaliana; modified medium with 18.8 mM KCl): 9.3 fold
increase in homologous recombination vs control MS medium (Arabidopsis thaliana; modified medium with 47 mM KCl): 15.4 fold
increase in homologous recombination vs control MS medium (Arabidopsis thaliana; modified medium with 94 mM KCl): 19.2 fold
Calli regenerated and transplanted: died on soil (Nicotiana tabacum [1]; 47 mM KCl): 0
Calli regenerated and transplanted: total (Nicotiana tabacum [1]; 47 mM KCl): 138
Calli regenerated and transplanted: died on soil (Nicotiana tabacum [1]; 94 mM KCl): 3
Calli regenerated and transplanted: total (Nicotiana tabacum [1]; 94 mM KCl): 181
increase in number of calli regenerated vs control medium (Nicotiana tabacum [1]; media containing 47 and 94 mM KCl): 5.9 fold
Integration frequency, LUC positive plants/leaf transformed (Nicotiana tabacum [2]; 47 mM KCl): 5.3
difference in number of stable transformants vs control media (Nicotiana tabacum [2]; 47 mM KCl): 5.9 fold
Calli regenerated and transplanted, LUC expression test: LUC negative (Nicotiana tabacum [2]; 47 mM KCl): 32
Calli regenerated and transplanted, LUC expression test: LUC positive (Nicotiana tabacum [2]; 47 mM KCl): 106
Integration frequency, LUC positive plants/leaf transformed (Nicotiana tabacum [2]; 94 mM KCl): 7.2
difference in number of stable transformants vs control media (Nicotiana tabacum [2]; 94 mM KCl): 8.0 fold
Calli regenerated and transplanted, LUC expression test: LUC negative (Nicotiana tabacum [2]; 94 mM KCl): 41
Calli regenerated and transplanted, LUC expression test: LUC positive (Nicotiana tabacum [2]; 94 mM KCl): 144
effect on plant phenotype / plant biomass (Arabidopsis; 100 mM KCl in MS medium): no decrease in plant biomass was observed

[Cl-].[Cl-].[Mg+2] [MgCl2]
effect on homologous recombination frequency (Arabidopsis thaliana; MS medium + 12.5 mM MgCl2, 21 days post-germination): significantly positive effects

[Cl-].[Na+] [NaCl]
RR (recombination rate) (Arabidopsis thaliana; 25 mM NaCl in medium): 12.29 ± 0.18 10^−8
Fold Increase of RR (Arabidopsis thaliana; 25 mM NaCl vs plants grown in absence of NaCl): 1.64
RR (recombination rate) (Arabidopsis thaliana; 75 mM NaCl in medium): 22.52 ± 0.34 10^−8
Fold Increase of RR (Arabidopsis thaliana; 75 mM NaCl vs plants grown in absence of NaCl): 3
RR (recombination rate) (Arabidopsis thaliana; 100 mM NaCl in medium): 29.57 ± 0.82 10^−8
Fold Increase of RR (Arabidopsis thaliana; 100 mM NaCl vs plants grown in absence of NaCl): 3.93
effect on homologous recombination frequency (Arabidopsis thaliana; MS medium + 25 mM NaCl, 21 days post-germination): significantly positive effects
increase in recombination frequency (Arabidopsis thaliana; exposure to 25-100 mM NaCl): 2-4 fold
decrease in plant biomass (Arabidopsis; 75 mM NaCl in MS medium): ~20%
decrease in plant biomass (Arabidopsis; 100 mM NaCl in MS medium): ~50%
